In general, EC50 refers to the concentration needed to bring the measured effect to its halfway point. What is called CC50 is the concentration giving 50% cytotoxicity. A lower CC50 goes with harm at low concentration.

For one series, the system named is WT HIV-1 strain (IIIB). Kind of series: Anti-HIV-1 activity in MT-4 cells, MTT method, wild-type strain IIIB. It counts as cell-based. The following applies: for SI IIIB: selectivity index, ratio of CC50/EC50, strain IIIB. The protocol:
(§1) Antiviral potency was evaluated in MT-4 cell cultures infected with WT HIV-1 strain (IllB) as well as cells infected with a panel of NNRTI-resistant double-mutant strain K103N+Y181C (RES056).
(§2) Selected compounds were screened for inhibitory activity against HIV-1 using MTT method as describe previously by Christophe. Pannecouque et al. Nat. Protoc. […] And in vitro anti-HIV activity of compounds were supported by Rega Institute for Medical Research. The MTT assay is based on the reduction of the yellow colored 3-(4,5-dimethylthiazol-2-yl)-2,5-diphenyltetrazolium bromide (MTT) by mitochondrial dehydrogenases of metabolically active cells to a blue formazan which can be measured spectrophotometrically. Tested optical density served as an indicator for live cells, and survival rate can be concluded by testing the optical density of 540 nm and 690 nm. MT-4 cells infected with HIV-1 can only survive for 5 to 7 days without any treatment, but when HIV-1 inhibitors were added, they can protect MT-4 cell from cytopathic. Serial solution of compounds was added to MT-4 cells after infected with HIV-1, MTT method was used to detect the survival rate after culture for 5 to 7 days.
(§3) (1) MT-4 cells infected with HIV-1 viral strains (IIIB, Y181C/K103N) were provided by Rega Institute for Medical Research, Katholieke Universiteit Leuven, Belgium.
(§4) (3) Preparation of compounds: Stock solutions (10×final concentration) of test compounds is diluted with double distilled H2O for 5 folds and 5 concentrations of one compound are prepared.
(§5) (5) Test method (MTT method): Serial five-fold dilutions of test compounds were added to cultured MT-4 cells infected with HIV-1, after 5 to 7 days, MTT was added and cultured for a few hours.
(§6) The MTT method was described briefly as follows: stock solutions (10×final concentration) of test compounds were added in 25 μL volumes to two series of triplicate wells in order to allow simultaneous evaluation of the effects on mock- and HIV-infected cells. Using a Biomek 3000 robot (Beckman Instruments, Fullerton, Calif.), serial five-fold dilutions of the test compounds (final 200 μL volume per well) were made directly in flat-bottomed 96-well microtiter trays, including untreated control HIV-1 and mock-infected cell samples for each sample. […] Mock-infected cells were used to evaluate the effect of test compounds on uninfected cells to assess cytotoxicity. Exponentially growing MT-4 cells were centrifuged for 5 min at 1000 rpm and the supernatant was discarded. […] At five days after infection, the viability of mock- and HIV-infected cells was determined spectrophotometrically by means of MTT assay.
(§7) The MTT assay is based on the reduction of yellow-colored MTT (Acros Organics, Geel, Belgium) by mitochondrial dehydrogenase of metabolically active cells to form a blue-purple formazan that can be measured spectrophotometrically. The absorbances were read in an eight-channel computer-controlled photometer, at the wavelengths of 540 and 690 nm. All data were calculated using the median optical density (OD) value of three wells.

The nature of series [1]: Cytotoxicity in mock-infected MT-4 cells, MTT method. It counts as cell-based. Particulars: human, CC50. The protocol:
(§8) The MTT method was described briefly as follows: stock solutions (10×final concentration) of test compounds were added in 25 μL volumes to two series of triplicate wells in order to allow simultaneous evaluation of the effects on mock- and HIV-infected cells. Using a Biomek 3000 robot (Beckman Instruments, Fullerton, Calif.), serial five-fold dilutions of the test compounds (final 200 μL volume per well) were made directly in flat-bottomed 96-well microtiter trays, including untreated control HIV-1 and mock-infected cell samples for each sample. HIV-1 (IIIB) and mutant HIV-1 strains stock (50 μL at 100-300 CCID50) or culture medium was added to either the infected or mock-infected wells of the microtiter tray. Mock-infected cells were used to evaluate the effect of test compounds on uninfected cells to assess cytotoxicity. Exponentially growing MT-4 cells were centrifuged for 5 min at 1000 rpm and the supernatant was discarded. The MT-4 cells were resuspended at 6×10^5 cells/mL, and 50 μL aliquots were transferred to the microtiter tray wells. At five days after infection, the viability of mock- and HIV-infected cells was determined spectrophotometrically by means of MTT assay.
as §7
(Formazan colour is commonly taken as a measure of viable cells.)

In the next series the test system is mock-infected MT-4 cells. The description is as above. It counts as cell-based. Particulars: human, 5 days. The method, then: as §8, §7
Series [2] has as its system NNRTI-resistant double-mutant strain K103N+Y181C (RES056). Briefly: microbe, parasite or virus in culture. It counts as cell-based, HIV-1. Particulars: for EC50: Human immunodeficiency virus 1, MT4, read-out: EC50 RES056; for SI RES056: selectivity index, ratio of CC50/EC50, strain RES056. The method, then:
as §1, §2, §3, §4, §5, §6, §7

A value given as a limit tells only on which side of the number the result lay.

`Cc1cc(C#N)cc(C)c1Oc1nc(NC2CCN(Cc3ccc(C(N)=O)cc3)CC2)nc2c1COC2` [Compound B2, 4-((4-((4-(4-cyano-2,6-dimethylphenoxy)-5,7-dihydrofuro[3,4-d]pyrimidin-2-yl)amino)piperidin-1-yl)methyl)benzamide]: the EC50 in the series on WT HIV-1 strain (IIIB) (Human immunodeficiency virus 1, IIIB, MT4, read-out: EC50 IIIB) stood at 2 nM. Besides, in series [1], the CC50 at 5 days was above 200000 nM. For the same molecule, in the series on mock-infected MT-4 cells, the CC50 was above 250000 nM. In addition, in series [2], the EC50 was 41.5 ± 9.9 nM and the “SI RES056” value is listed as above 6039.
For `Cc1cc(C#N)cc(C)c1Oc1nc(NC2CCN(Cc3ccc(S(N)(=O)=O)cc3)CC2)nc2c1CCC2` [Compound C1, 4-((4-((4-(4-cyano-2,6-dimethylphenoxy)-6,7-dihydro-5H-cyclopenta[d]pyrimidin-2-yl)amino)piperidin-1-yl)methyl)benzenesulfonamide], in the series with WT HIV-1 strain (IIIB) (EC50 against HIV-1 IIIB compared with ETR), the “fold more potent than ETR” value is listed as “about 4.6 fold”. This molecule yielded a CC50 at 5 days in series [1] above 200000 nM. Also, the CC50 with mock-infected MT-4 cells was above 234000 nM. Besides, in series [2], the EC50 is 25.8 nM and the “SI RES056” value is above 9091.
For `Cc1cc(C#N)cc(C)c1Oc1nc(NC2CCN(Cc3ccc([N+](=O)[O-])cc3)CC2)nc2c1SCC2` [Compound A5, 3,5-dimethyl-4-((2-((1-(4-nitrobenzyl)piperidin-4-yl)amino)-6,7-dihydrothieno[3,2-d]pyrimidin-4-yl)oxy)benzonitrile], the “SI IIIB” value in the series with WT HIV-1 strain (IIIB) came out at 770. Besides, in the series with mock-infected MT-4 cells, half-maximal cytotoxicity (CC50) was put at 6180 ± 1740 nM. In series [2], the EC50 amounted to 495 ± 1.3 nM and the “SI RES056” value came out at 12.
In the same order, the values of `Cc1cc(C#N)cc(C)c1Oc1nc(NC2CCN(Cc3ccc(S(N)(=O)=O)cc3)CC2)nc2c1SCC2` [Compound A1, 4-((4-((4-(4-cyano-2,6-dimethylphenoxy)-6,7-dihydrothieno[3,2-d]pyrimidin-2-yl)amino)piperidin-1-yl)methyl)benzenesulfonamide] are 4584, 19900 ± 10100 nM, 28.8 ± 1.2 nM and 692.
In the same order, the values of `Cc1cc(C#N)cc(C)c1Oc1nc(NC2CCN(Cc3ccc(S(C)(=O)=O)cc3)CC2)nc2c1CSC2` [Compound D2, 3,5-dimethyl-4-((2-((1-(4-(methylsulfonyl)benzyl)piperidin-4-yl)amino)-5,7-dihydrothieno[3,4-d]pyrimidin-4-yl)oxy)benzonitrile] are 11690, 45300 ± 31100 nM, 170 ± 32 nM and 266.
In the same order, the values of `Cc1cc(C#N)cc(C)c1Oc1nc(NC2CCN(Cc3ccc(S(C)(=O)=O)cc3)CC2)nc2c1SCC2` [Compound A3, 3,5-dimethyl-4-((2-((1-(4-(methylsulfonyl)benzyl)piperidin-4-yl)amino)-6,7-dihydrothieno[3,2-d]pyrimidin-4-yl)oxy)benzonitrile] are 2025, 11900 ± 5570 nM, 46.6 ± 7.8 nM and 257.
